The text below walks through data of US20060270640A1, “Method of preventing, medicating, and/or treating hypocalcemia of domestic mammal” (Mercian Corporation, priority 2004, published 2006).

Data set [1] can be described thus: Intravaginal 1,25-(OH)2D3 in raised cows: mineral (Ca, iP, Mg) concentrations in plasma (Example 2). Format: in vivo, cow. On the procedure: (§1) Hereinafter, the present invention will further be described with reference to Examples and Comparative Example. However, the present invention is not intended to be limited to them by any means. In the examples described below, a 1,25-(OH)2D3 concentration in plasma was determined using a radioimmunoassay kit (1,25-(OH)2D RIA kit, Immunodiagnostic Systems Limited, UK). The Ca concentrations, inorganic phosphorus (iP) concentrations, and magnesium (Mg) concentrations in plasma and urine were determined by orthocresolphthalein complexone (O-CPC), molybdenum (Mo), and xylidyl blue methods, respectively. A creatinine concentration in urine was determined by a Jaffe method. Calcium (Ca), inorganic phosphorus (iP), and magnesium (Mg) concentrations in urine were indicated in the ratios relative to creatinine (Cre) (Ca/Cre, iP/Cre, and Mg/Cre, respectively).
(§2) For confirming the absorption in the vagina of 1,25-(OH)2D3 administered to the vaginal cavities of cows, biochemical changes of 1,25-(OH)2D3 and minerals in blood were observed after the intravaginal administration of 1,25-(OH)2D3 to cows.
(§3) Six Holstein cows (3 to 6 months olds, 97 to 118 kg in body weights) that were clinically healthy were raised and domesticated for at least 1 week in the same fence by providing them with feed (1.56 kg of grass, 0.55 kg of formula feed, and 1.44 kg of alfalfahey cube in dried forms) having a daily mineral intake of 21 g of Ca, 13 g of P, and 4 g of Mg that satisfies requirements stipulated by NRC (National Research Council) on a daily basis and free water drinking.
(§4) To each of five of the cows, 1,25-(OH)2D3 (crystal manufactured by Mercian Corporation dissolved in 99% ethanol to bring its concentration to 1 mg/mL and cryopreserved at −20° C. until just before use) was intravaginally administered at 1 μg per kg of body weight.
Intravaginal administration was performed using a 14-gauge, 64 mm-long cannula with an indwelling needle for injection (Surflo, Terumo Co. Ltd., Tokyo) and a plastic pump (Top Plastic Syringe, Top Surgical Taiwan Corporation, Taiwan).
To the other cow, 3.0 mL of 99% ethanol was administered as a control.
A heparinized blood sample was collected from a jugular vein immediately before administration (0 hour) and at 2, 6, 12, 24, 48, 72, and 96 hours after administration.
The biochemical value of blood was indicated as a means±standard deviation. For observing the effect of the intravaginal administration of 1,25-(OH)2D3, repeated measures analysis of variance was used. When the effect was significant, a statistical test was conducted by the Dunnett's multiple comparison between the value at 0 hour and each value after administration. The significant difference was set to P<0.05.

The conditions of data set [2]: intravenous, four dose levels (30, 90, 270, and 600 μg); increase not directly related to dose; cited from earlier work.
Data set [3] in a line: Intravaginal 1,25-(OH)2D3 in raised cows: 1,25-(OH)2D3 concentration in plasma, RIA (Example 2). It counts as in vivo, cow. The protocol: as §1, §2, §3, §4
Intravaginal administration was performed using a 14-gauge, 64 mm-long cannula with an indwelling needle for injection (Surflo, Terumo Co. Ltd., Tokyo) and a plastic pump (Top Plastic Syringe, Top Surgical Taiwan Corporation, Taiwan). […]

The mark [4] stands for this setting: 0 hour, intravaginal 1 μg/kg, n=5.

Molecules are shown by their SMILES.

Consider `C=C1/C(=C\C=C2/CCC[C@]3(C)[C@@H]([C@H](C)CCCC(C)(C)O)CC[C@@H]23)C[C@@H](O)C[C@@H]1O` [1,25-(OH)2D3, 1,25-dihydroxyvitamin D3], for which the Mg in plasma came to 2.1 ± 0.1 mg/dL in data set [1] (setting [4]); 1.8 ± 0.1 mg/dL in data set [1] (24 hours after intravaginal 1 μg/kg, P<0.01 vs 0 hour); 1.8 ± 0.1 mg/dL in data set [1] (48 hours after intravaginal 1 μg/kg, P<0.01 vs 0 hour). The iP in plasma was 7.3 ± 0.5 mg/dL in data set [1] (setting [4]); 8.1 ± 0.8 mg/dL in data set [1] (6 hours after intravaginal 1 μg/kg, P<0.05 vs 0 hour); 9.1 ± 0.7 mg/dL in data set [1] (24 hours (start of 24 to 96 hours) after intravaginal 1 μg/kg, P<0.01); 8.6 ± 0.6 mg/dL in data set [1] (96 hours (end of 24 to 96 hours) after intravaginal 1 μg/kg, P<0.01). For the same compound, the “Ca concentration in plasma, maximum value” in data set [1] (24 hours after intravaginal 1 μg/kg, n=5, significantly (P<0.01) high at 12 to 72 hours) was 11.96 ± 0.7 mg/dL. Also, the “Ca concentration in plasma” value in data set [1] (before administration, intravaginal 1 μg/kg, n=5) turned out to be 10.4 ± 0.4 mg/dL. Besides, the “excretion of calcium into urine” value in data set [2] is “increases”. For the same compound, the concentration at 6 h in data set [3] (female, Holstein, bovine, plasma, other: intravaginal, 6 hours after intravaginal 1 μg/kg, n=5, p<0.01 vs 0 hour) is 1.97 ± 1.14 ng/mL. This compound also displayed a concentration at 0 h in data set [3] (female, Holstein, bovine, plasma, other: intravaginal, before administration (0 hour), intravaginal 1 μg/kg, n=5 raised cows, mean±SD) of 0.0883 ± 0.0203 ng/mL. In addition, the “absorption from the vaginal wall of a cow” value in data set [3] (intravaginal 1 μg/kg, sudden rise in plasma at 2 hours) is on record as “confirmed”.
